In general, IC50 refers to the midpoint of a concentration-inhibition curve.

This assay addresses human P2X3 receptor (Homo sapiens (Human), UniProt P56373). Briefly: P2X3 receptor inhibition, ATP-evoked Fluo-3 calcium fluorescence (FDSS 3000). The class given is cell-based. The note with it: C6BU-1 cell transfected with human P2X3 receptor gene; ATP-evoked Fluo-3 fluorescence. In a few lines: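 C6BU-1 cells stably transfected with human P2X3, loaded with 4 μM Fluo-3-AM for 1 h at 37 °C in HEPES buffer pH 7.5 with probenecid. Compound added 5 min before 40 nM ATP solution; fluorescence followed 3 min. IC50 from ratio of peak post-ATP to baseline fluorescence.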

Sequence of human P2X3 receptor (P56373 whole entry): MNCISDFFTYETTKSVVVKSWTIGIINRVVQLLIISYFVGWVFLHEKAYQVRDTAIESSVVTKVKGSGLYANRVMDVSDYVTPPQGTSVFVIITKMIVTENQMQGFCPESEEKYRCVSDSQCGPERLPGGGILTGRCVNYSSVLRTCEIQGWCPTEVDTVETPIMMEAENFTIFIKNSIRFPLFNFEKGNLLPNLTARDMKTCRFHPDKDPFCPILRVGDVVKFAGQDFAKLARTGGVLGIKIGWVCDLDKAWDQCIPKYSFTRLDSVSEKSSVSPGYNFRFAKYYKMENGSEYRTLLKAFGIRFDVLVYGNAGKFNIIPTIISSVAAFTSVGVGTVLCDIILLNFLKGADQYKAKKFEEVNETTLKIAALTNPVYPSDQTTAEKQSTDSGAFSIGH

Regarding `CC(C)CC(=O)C1=C(O)C(=O)N(c2ccc(-c3ccon3)cc2)C1c1ccccc1OC(F)F` (stereo not drawn) [Compound I-307], the IC50 came out at 158 nM. With `CSc1ccc(N2C(=O)C(O)=C(C(=O)C(C)C)C2c2ccccc2OCC2CCOCC2)cc1` (stereo not drawn) [Compound I-591] the figure was 31 nM; with `CC(C)(C)c1n[nH]c2c1C(c1cccnc1OCCO)N(c1ccc(-c3ccco3)cc1)C2=O` (stereo not drawn) [II-043], 17 nM; with `COc1ccc(C(=O)C2=C(O)C(=O)N(c3ccc(-c4noc(C)n4)cc3)C2c2ccccc2OC)cc1` (stereo not drawn) [Compound I-030], 53 nM. For `COCCOc1ncccc1C1C(C(=O)C(C)C)=C(O)C(=O)N1c1ccc(SC)cc1` (stereo not drawn) [Compound I-485] the value was 218 nM; for `COc1ccc(C(=O)C2=C(O)C(=O)N(c3ccc(-c4cc(C)on4)cc3)C2c2ccccc2OC)cc1` (stereo not drawn) [Compound I-480], 42 nM; for `CC(C)c1n[nH]c2c1C(c1ccccc1OCC#N)N(c1ccc(-c3ccsc3)cc1)C2=O` (stereo not drawn) [II-127], 4 nM. With `CC(C)C(=O)C1=C(O)C(=O)N(c2ccc(-c3ccsc3)cc2)C1c1ccccc1OCCN(C)C` (stereo not drawn) [Compound I-157] the figure was 25 nM; with `CCOC(=O)c1ccc(N2C(=O)c3[nH]nc(C(C)(C)C)c3C2c2ccccc2OC)cc1` (stereo not drawn) [II-057], 17 nM. In the case of `COc1cc(F)ccc1C1c2c(C(C)(C)C)n[nH]c2C(=O)N1c1ccc(-c2ccon2)cc1` (stereo not drawn) [II-059], the IC50 was found to be 46 nM. With `Cc1ccc(-c2ccc(N3C(=O)C(O)=C(C(=O)C(C)C)C3c3ccccc3N3CCCC3=O)cc2)s1` (stereo not drawn) [Compound I-597], the IC50 is 668 nM.

Consider `COc1ncccc1C1C(C(=O)C(C)C)=C(O)C(=O)N1c1ccc(-c2ccc(C)s2)cc1` (stereo not drawn) [Compound I-332], for which the IC50 came to 281 nM.

Take `COc1ccccc1C1c2c(C(C)C)n[nH]c2CN1c1ccc(-c2ccsc2)cc1` (stereo not drawn) [II-067]: the IC50 worked out at 153 nM. Turning to `Cc1ccc(-c2ccc(N3C(=O)C(O)=C(C(=O)CC(C)C)C3c3ccccc3OCCO)cc2)s1` (stereo not drawn) [Compound I-328], the IC50 was determined as 65 nM. As to `CSc1ccccc1C1C(C(=O)C(C)(C)C)=C(O)C(=O)N1c1ccc(-c2ccon2)cc1` (stereo not drawn) [Compound I-057], the IC50 was found to be 159 nM.

`COc1ccccc1C1C(C(=O)C(C)(C)C)=C(O)C(=O)N1c1ccc(C(C)(C)C)cc1` (stereo not drawn) [Compound I-046]: the IC50 was found to be 580 nM.

For the molecule `COc1ccccc1C1C(C(=O)C(C)C)=C(O)C(=O)N1c1ccc2sccc2c1` (stereo not drawn) [Compound I-269], the IC50 was found to be 347 nM.

As for `COc1ccccc1C1C(C(=O)C(C)(C)C)=C(O)C(=O)N1c1ccc(-c2csc(C)c2)cc1` (stereo not drawn) [Compound I-197], the IC50 worked out at 36 nM. With `CC(C)CC(=O)C1=C(O)C(=O)N(c2ccc(-c3ccsc3)cc2)C1c1ccccc1OCCCO` (stereo not drawn) [Compound I-366] the figure was 13 nM; with `COc1ccc(C(=O)C2=C(O)C(=O)N(c3ccc(-c4nnc(C)o4)cc3)C2c2ccccc2OC)cc1` (stereo not drawn) [Compound I-033], 53 nM; with `Cc1ncccc1C1C(C(=O)C(C)(C)C)=C(O)C(=O)N1c1ccc(-c2ccco2)cc1` (stereo not drawn) [Compound I-142], 315 nM. For `COc1ccccc1C1c2c(C(C)(C)C)n[nH]c2C(=O)N1c1ccc(C(C)C)cc1` (stereo not drawn) [II-197] the value was 106 nM. With `Cc1ccc(-c2ccc(N3C(=O)C(O)=C(C(=O)C(C)C)C3c3ccccc3C(=O)N3CCOCC3)cc2)o1` (stereo not drawn) [Compound I-549] the figure was 213 nM; with `Cc1nc(-c2ccc(N3C(=O)c4[nH]nc(C(C)C)c4C3c3cccnc3OCCO)cc2)no1` (stereo not drawn) [II-046], 861 nM.

Consider `Cc1nc(-c2ccc(NC3=CC(C4CCCCC4)N(c4ccc(-c5noc(C)n5)cc4)C3=O)cc2)no1` (stereo not drawn) [Compound I-469], for which the IC50 is 646 nM.

In the case of `CC(C)C(=O)C1=C(O)C(=O)N(c2ccc(-c3ccsc3)cc2)C1c1ccccc1C(F)(F)F` (stereo not drawn) [Compound I-300], the IC50 is 114 nM. With `COCCCOc1ncccc1C1C(C(=O)C(C)C)=C(O)C(=O)N1c1ccc(-c2ccc(C)s2)cc1` (stereo not drawn) [Compound I-569] the figure was 35 nM. For `COCCOc1ncccc1C1C(C(=O)C(C)C)=C(O)C(=O)N1c1ccc(-c2ccc(C)s2)cc1` (stereo not drawn) [Compound I-267] the value was 14 nM. Take `CC(C)(C)c1n[nH]c2c1C(c1ccccc1S(C)(=O)=O)N(c1ccc(-c3ccon3)cc1)C2=O` (stereo not drawn) [II-112]: the IC50 amounted to 389 nM.

For `COCCN(C)C(=O)c1ccccc1C1C(C(=O)C(C)C)=C(O)C(=O)N1c1ccc(-c2csc(C)c2)cc1` (stereo not drawn) [Compound I-547], the IC50 turned out to be 217 nM. With `COc1ccc(C(=O)C2=C(O)C(=O)N(c3nc4ccc(OC)cc4s3)C2C2CCCCC2)cc1` (stereo not drawn) [Compound I-009] the figure was 14 nM; with `Cc1nc(-c2ccc(N3C(=O)C(O)=C(C(=O)C(C)C)C3c3ccccc3COC(C)C)cc2)no1` (stereo not drawn) [Compound I-539], 62 nM; with `COCCOc1ccccc1C1C(C(=O)C(C)(C)C)=C(O)C(=O)N1c1ccc(-c2noc(C)n2)cc1` (stereo not drawn) [Compound I-129], 91 nM. `COCc1ccccc1C1C(C(=O)C(C)(C)C)=C(O)C(=O)N1c1ccc(-c2cc(C)no2)cc1` (stereo not drawn) [Compound I-050]: the IC50 was 642 nM. With `Cc1ccc(-c2ccc(N3C(=O)C(O)=C(C(=O)C(C)C)C3c3cccnc3OC(C)C)cc2)o1` (stereo not drawn) [Compound I-479] the figure was 10 nM. For `COCCOc1ccccc1C1C(C(=O)CC(C)C)=C(O)C(=O)N1c1ccc(-c2csc(C)c2)cc1` (stereo not drawn) [Compound I-375] the value was 30 nM.

For `COCc1ccccc1C1C(C(=O)C(C)C)=C(O)C(=O)N1c1ccc(-c2noc(C)n2)cc1` (stereo not drawn) [Compound I-310], the IC50 was found to be 337 nM. For `COc1ncccc1C1c2c(C(C)(C)C)n[nH]c2C(=O)N1c1ccc(-c2ccoc2)cn1` (stereo not drawn) [II-261] the value was 140 nM. With `CC(C)C(=O)C1=C(O)C(=O)N(c2ccc(-c3ccsc3)cc2)C1c1ccccc1OCC1OCCO1` (stereo not drawn) [Compound I-551] the figure was 5 nM; with `COc1ccccc1C1C(C(=O)CC(C)(C)C(=O)O)=C(O)C(=O)N1c1ccc(-c2ccsc2)cc1` (stereo not drawn) [Compound I-557], 444 nM. For `COc1ncccc1C1c2c(C(C)(C)C)n[nH]c2C(=O)N1c1ccc(-c2ccsc2)cn1` (stereo not drawn) [II-262] the value was 39 nM; for `COc1ccccc1C1C(C(=O)C(C)(C)C)=C(N)C(=O)N1c1ccc(-c2ccon2)cc1` (stereo not drawn) [Compound I-102], 134 nM; for `CC(C)(C)c1n[nH]c2c1C(c1ccccc1OCC#N)N(c1ccc(-c3ccon3)cc1)C2=O` (stereo not drawn) [II-108], 15 nM.

As for `COc1ccc(-c2n[nH]c3c2C(c2ccccc2OCCO)N(c2nc4cc(OC)ccc4s2)C3=O)cc1` (stereo not drawn) [II-117], the IC50 is 348 nM. For the molecule `COCCOc1ccccc1C1C(C(=O)C(C)C)=C(O)C(=O)N1c1ccc(SC)cc1` (stereo not drawn) [Compound I-475], the IC50 turned out to be 181 nM.

Regarding `COc1ccccc1C1C(C(=O)CC(C)C)=C(O)C(=O)N1c1ccc(-c2ccsc2)cc1` (stereo not drawn) [Compound I-239], the IC50 came out at 35 nM. With `COCCOc1ncccc1C1C(C(=O)C2CCCC2)=C(O)C(=O)N1c1ccc(-c2noc(C)n2)cc1` (stereo not drawn) [Compound I-523] the figure was 351 nM; with `COCc1ccccc1C1c2c(C(C)(C)C)n[nH]c2C(=O)N1c1ccc(-c2cc(C)no2)cc1` (stereo not drawn) [II-068], 508 nM; with `CC(C)Oc1ccccc1C1c2c(C(C)(C)C)n[nH]c2C(=O)N1c1ccc(-c2ccon2)cc1` (stereo not drawn) [II-019], 21 nM.

On to `CC(C)C(=O)C1=C(O)C(=O)N(c2ccc(-c3ccon3)cc2)C1c1cccnc1OCCO` (stereo not drawn) [Compound I-179], for which the IC50 stood at 659 nM.

Take `CC(C)c1n[nH]c2c1C(c1ccccc1C(=O)NCCO)N(c1ccc(-c3ccsc3)cc1)C2=O` (stereo not drawn) [II-091]: the IC50 came to 2 nM. Consider `COCCOc1ncccc1C1C(C(=O)CC(C)C)=C(O)C(=O)N1c1ccc(SC)cc1` (stereo not drawn) [Compound I-550], for which the IC50 came to 254 nM. In the case of `CCc1ccccc1C1C(C(=O)C(C)(C)C)=C(O)C(=O)N1c1ccc(-c2ccon2)cc1` (stereo not drawn) [Compound I-091], the IC50 is 341 nM. For `Cc1ccc(-c2ccc(N3C(=O)C(O)=C(C(=O)C(C)C)C3c3ccccc3S(C)(=O)=O)cc2)o1` (stereo not drawn) [Compound I-548] the value was 77 nM.

With `COc1ccccc1C1c2c(C(C)(C)CO)n[nH]c2C(=O)N1c1ccc(-c2cc[nH]c2)cc1` (stereo not drawn) [II-232], the IC50 amounted to 16 nM. Consider `COCc1ccccc1C1C(C(=O)CC(C)C)=C(O)C(=O)N1c1ccc(SC(F)(F)F)cc1` (stereo not drawn) [Compound I-448], for which the IC50 worked out at 246 nM. With `COc1ccc(S(=O)(=O)C2=C(O)C(=O)N(c3ccc(-c4noc(C)n4)cc3)C2C2CCCCC2)cc1` (stereo not drawn) [Compound I-560] the figure was 275 nM.

Values taken from patent US8575197B2, “Pyrolinone derivative and pharmaceutical composition comprising the same” (Shionogi & Co., Ltd., priority 2008, dated 2013).
